Molecules are shown by their SMILES.

The first test deals with HCV 1b RLuc cells (dicistronic genotype 1b Con1 replicon). Put plainly: Renilla luciferase (RLuc)-based HCV replicon reporter assay. Particulars: HCV 1b RLuc replicon, 72 hours; read-out: Activity (antiviral potency [EC50]). The test is classed as cell-based, HCV genotype 1b. Here is the method: Antiviral potency (EC50) was determined using a Renilla luciferase (RLuc)-based HCV replicon reporter assay. To perform the assay, HCV 1b RLuc cells (harboring a dicistronic genotype 1b Con1 replicon that encodes a RLuc reporter), or HCV 1a RLuc cells (harboring a dicistronic genotype 1a H77 replicon that encodes a RLuc reporter), were dispensed into 384-well plates. Compounds were re-suspended in DMSO at a concentration of 10 mM and serially diluted in DMSO using an automated pipeting instrument. Serially diluted compounds were mixed with cell culture media and added to the seeded cells. DMSO was used as a negative (solvent) control, and the protease inhibitor ITMN-191 was included at a concentration >100×EC50 as a positive control. 72 hours later, cells were lysed and Renilla luciferase activity quantified as recommended by the manufacturer (Promega-Madison, Wis.). Non-linear regression was performed to calculate EC50 values.
Biological data (antiviral potency [EC50] was determined using a Renilla luciferase (RLuc)-based HCV replicon reporter assay—HCV 1b RLuc) for representative compounds of the invention is provided in the following table. These compounds can be prepared using procedures similar to those described above.
On the technique in general: A replicon is a self-replicating genome or part of one, used to study replication in cells.
The term EC50 denotes the concentration that produces a half-maximal response. Consider `COC(=O)N[C@H](C(=O)N1CCC[C@H]1c1ncc(-c2ccc(-c3ccc(-c4cnc([C@@H]5CSC(c6ccncc6)N5C(=O)OCc5ccccc5)[nH]4)cc3)cc2)[nH]1)C(C)C` (single isomer, unassigned) [drawing 1302], for which the EC50 amounted to 0.0209 nM.
On the same count and under the same terms, then `COC(=O)N[C@H](C(=O)N1CCC[C@H]1c1ncc(-c2ccc(-c3ccc(-c4cnc([C@@H]5CSC(c6ccncc6)N5C(=O)OCc5ccccc5)[nH]4)cc3)cc2)[nH]1)C(C)C` (single isomer, unassigned) [drawing 1301], with 0.0765 nM.

The same test, now with this note: Hepatitis C virus, 72 h, HCV 1b RLuc replicon, 72 hours; read-out: Activity (antiviral potency [EC50]).
Turning to `COC(=O)N[C@@H](CCC#N)C(=O)N1[C@@H]2CC[C@@H](C2)[C@H]1c1nc2ccc(-c3ccc4c(c3)C(F)(F)c3cc(-c5cnc([C@@H]6CC7(CC7)CN6C(=O)[C@@H](NC(=O)OC)C(C)C)[nH]5)ccc3-4)cc2[nH]1`, the half-maximal effective concentration (EC50) came to 0.006 nM.
Still for that read-out and setting: then `COC(=O)N[C@H](C(=O)N1CCC[C@H]1c1ncc(C#Cc2ccc(-c3cnc([C@@H]4CCCN4C(=O)[C@@H](NC(=O)OC)C(C)C)[nH]3)cc2)[nH]1)C(C)C`, with 0.139 nM.
On the same count and under the same terms, the result for `COC(=O)N[C@H](C(=O)N1CCC[C@H]1c1ncc(-c2ccc3c(c2)CCc2cc(-c4ccc5nc([C@@H]6CCCN6C(=O)[C@@H](NC(=O)OC)C(C)C)[nH]c5c4)ccc2-3)[nH]1)C(C)C` reads 0.0037 nM.
In the case of `COC(=O)N[C@H](C(=O)N1CC2(CC2)C[C@H]1c1nc(-c2ccc3cc(-c4ccc(-c5cnc([C@@H]6SCCN6C(=O)[C@@H](NC(=O)OC)C6CCOCC6)[nH]5)cc4)ccc3c2)c[nH]1)C(C)C`, the EC50 was found to be 0.132 nM.
On to `COC(=O)N[C@@H](CCOC(F)F)C(=O)N1CCC[C@H]1c1ncc(-c2ccc(-c3ccc4cc(-c5cnc([C@@H]6CC7(CC7)CN6C(=O)[C@@H](NC(=O)OC)C(C)C)[nH]5)ccc4c3)cc2)[nH]1`, for which the EC50 is 0.0052 nM.
On the same count and under the same terms, the result for `COC(=O)N[C@H](C(=O)N1CCC[C@H]1c1ncc(-c2ccc3cc(-c4ccc(-c5cnc([C@@H]6C[C@H](CNC(C)=O)CN6C(=O)[C@@H](NC(=O)OC)C(C)C)[nH]5)cc4)ccc3c2)[nH]1)C(C)C` reads 0.138 nM.
Same read-out and setting: the result for `COC(=O)N[C@H](C(=O)N1[C@@H]2CC[C@@H](C2)[C@H]1c1ncc(-c2ccc(-c3ccc4cc(-c5cnc([C@@H]6CC7(CC7)CN6C(=O)[C@H](NC(=O)OC)c6ccccc6)[nH]5)ccc4c3)cc2)[nH]1)C(C)C` reads 0.0394 nM.
Consider `COC(=O)N[C@@H](C)C(=O)N1[C@@H]2CC[C@@H](C2)[C@H]1c1ncc(-c2ccc3c(c2)CCc2cc(-c4cnc([C@@H]5CCCN5C(=O)[C@@H](NC(=O)OC)C(C)C)[nH]4)ccc2-3)[nH]1`, for which the EC50 stood at 0.0126 nM.
Take `COC(=O)N[C@@H](C)C(=O)N1CCC[C@H]1c1ncc(-c2ccc(-c3ccc4cc(-c5cnc([C@@H]6[C@H]7CC[C@H](C7)N6C(=O)[C@@H](NC(=O)OC)C(C)C)[nH]5)ccc4c3)cc2)[nH]1`: the EC50 worked out at 0.034 nM.
On to `COC(=O)N[C@H](C(=O)N1CCC[C@H]1c1ncc(-c2ccc3cc(-c4ccc5[nH]c([C@@H]6CCN6C(=O)[C@@H](NC(=O)OC)C(C)C)nc5c4)ccc3c2)[nH]1)C(C)C`, for which the EC50 stood at 0.026 nM.
Still for that read-out and setting: the result for `COC(=O)N[C@H](C(=O)N1CCC[C@H]1c1ncc(-c2ccc3c(c2)CN(C)Cc2cc(-c4cnc([C@@H]5CCCN5C(=O)[C@@H](NC(=O)OC)C(C)C)[nH]4)ccc2-3)[nH]1)C(C)C` reads 11.1 nM; that for `COC(=O)N[C@H](C(=O)N1CCC[C@H]1c1ncc(-c2ccc3cc(-c4ccc(-c5cnc([C@@H]6CCCN6C(=O)[C@H](NC(=O)OC)c6ccc(F)cc6)[nH]5)cc4)ccc3c2)[nH]1)C(C)C`, 0.0142 nM.
Same read-out and setting: then `COC(=O)N[C@H](C(=O)N1CCC[C@H]1c1ncc(-c2ccc3c(c2)COc2cc(-c4ccc5nc([C@@H]6[C@H]7CC[C@H](C7)N6C(=O)[C@@H](NC(=O)OC)C(C)C)[nH]c5c4)ccc2-3)[nH]1)C(C)C`, with 0.007 nM; and `COC(=O)N[C@H](C(=O)N1CCC[C@H]1c1ncc(-c2ccc3cc(-c4ccc5cc(-c6cnc([C@@H]7[C@H]8CC[C@H](C8)N7C(=O)[C@@H](NC(=O)OC)C(C)C)[nH]6)ccc5c4)ccc3c2)[nH]1)C(C)C`, with 0.28 nM.
Same read-out and setting: the result for `COC(=O)N[C@@H](C)C(=O)N1[C@@H]2CC[C@@H](C2)[C@H]1c1nc2ccc(-c3ccc4c(c3)C(F)(F)c3cc(-c5cnc([C@@H]6CC7(CC7)CN6C(=O)[C@@H](NC(=O)OC)C(C)C)[nH]5)ccc3-4)cc2[nH]1` reads 0.0036 nM; that for `COC(=O)N[C@H](C(=O)N1CCC[C@H]1c1ncc(-c2ccc3cc(-c4ccc(-c5cnc([C@@H]6CCCN6C(=O)[C@H](c6ccccc6)C(C)C)[nH]5)cc4)ccc3c2)[nH]1)C(C)C`, 0.0112 nM.
For the compound `CC[C@H](NC(=O)OC)C(=O)N1CC2(CC2)C[C@H]1c1ncc(-c2ccc3cc(-c4ccc(-c5cnc([C@@H]6[C@H]7CC[C@H](C7)N6C(=O)[C@@H](NC(=O)OC)C(C)C)[nH]5)cc4)ccc3c2)[nH]1`, the 50% effective concentration (EC50) turned out to be 0.0181 nM.
The same measure, in the same setting: the result for `COCCO[C@H]1C[C@@H](c2ncc(-c3ccc(-c4ccc5cc(-c6cnc([C@@H]7CC8(CC8)CN7C(=O)[C@@H](NC(=O)OC)C(C)C)[nH]6)ccc5c4)cc3)[nH]2)N(C(=O)[C@@H](NC(=O)OC)C(C)C)C1` reads 0.0146 nM; that for `COC(=O)N[C@@H](C)C(=O)N1CCC[C@H]1c1ncc(-c2ccc3cc(-c4ccc5cc(-c6cnc([C@@H]7[C@H]8CC[C@H](C8)N7C(=O)[C@@H](NC(=O)OC)C(C)C)[nH]6)ccc5c4)ccc3c2)[nH]1`, 1.15 nM; that for `COC(=O)N[C@H](C(=O)N1CCC[C@H]1c1ncc(-c2ccc(C#Cc3ccc(-c4cnc([C@@H]5COCCN5C(=O)[C@@H](NC(=O)OC)C(C)C)[nH]4)cc3)cc2)[nH]1)C(C)C`, 0.0198 nM.
As for `COC(=O)N[C@H](C(=O)N1C[C@@H](C#N)C[C@H]1c1ncc(-c2ccc(-c3ccc4cc(-c5cnc([C@@H]6CC7(CC7)CN6C(=O)[C@@H](NC(=O)OC)C(C)C)[nH]5)ccc4c3)cc2)[nH]1)C(C)C`, the EC50 was found to be 0.0069 nM.
As for `COC(=O)N[C@H](C(=O)N1CCC[C@H]1c1ncc(-c2ccc(-c3ccc(-c4cnc([C@@H]5CC[C@@H]6CC[C@H](NC(=O)OC(C)(C)C)C(=O)N65)[nH]4)cc3)cc2)[nH]1)C(C)C`, the EC50 was 0.325 nM.
Still for that read-out and setting: the result for `COC(=O)N[C@H](C(=O)N1CC2(CC2)C[C@H]1c1ncc(-c2ccc3cc(-c4ccc(-c5cnc([C@@H]6[C@H]7CC[C@H](C7)N6C(=O)[C@@H](NC(=O)OC)C6CCOCC6)[nH]5)cc4)ccc3c2)[nH]1)C(C)C` reads 0.0115 nM.
Same read-out and setting: the result for `COCC[C@H](NC(=O)OC)C(=O)N1[C@@H]2CC[C@@H](C2)[C@H]1c1ncc(-c2ccc(-c3ccc4cc(-c5cnc([C@@H]6CC7(CC7)CN6C(=O)[C@@H](NC(=O)OC)C(C)C)[nH]5)ccc4c3)cc2)[nH]1` reads 0.0119 nM; that for `COC(=O)N[C@H](C(=O)N1CCC[C@H]1c1ncc(-c2ccc(C#Cc3ccc(-c4cnc([C@@H]5CCCN5C(=O)[C@@H](NC(=O)OC)C(C)C)[nH]4)cc3)cc2)[nH]1)C(C)C`, 0.0126 nM.
Consider `CC[C@H](NC(=O)OC)C(=O)N1C[C@@H](C#N)C[C@H]1c1ncc(-c2ccc3cc(-c4ccc(-c5cnc([C@@H]6CC7(CC7)CN6C(=O)[C@@H](NC(=O)OC)C(C)C)[nH]5)cc4)ccc3c2)[nH]1`, for which the EC50 is 0.0155 nM.
Still for that read-out and setting: the result for `COC(=O)N[C@H](C(=O)N1CCC[C@H]1c1ncc(-c2ccc(-c3ccc4cc(-c5cnc([C@@H]6CCCN6C(=O)[C@H](NC(=O)OC)c6ccccc6)[nH]5)ccc4c3)cc2)[nH]1)C(C)C` reads 0.0083 nM.

These data come from patent publication US8822430B2 (Gilead Sciences, Inc., priority 2009, dated 2014).
